Measured values: patent US11890349B2, “Treatment of inflammatory diseases with inhibitors of C5A activity” (InflaRx GmbH, priority 2017, dated 2024)

How the values were obtained:
[1] = tested on: CD11b upregulation on the surface of neutrophils; experiment: Human CD11b potency assay (flow cytometric assay) with HS patient plasma or rhC5a-spiked human plasma; assay type: cell-based
Text: Accumulation of neutrophils at the site of inflammation is dependent on the expression of adhesion molecules, including CD11b (also known as integrin alpha M) (Larson and Springer, 1990; Carlos and Harlan, 1990). Upregulation and mobilizing of CD11b/CD18 from intracellular pools to the surface of neutrophils is essential for the rolling action and migration of human neutrophils (Smith et al., 1989). Enhanced expression of CD11b/CD18 therefore reflects an inflammatory triggering event. The human CD11b assay is conducted using flow cytometry to detect FITC-conjugated anti-CD11b antibody on the surface of neutrophils. Activated complement products, especially elevated endogenous C5a (eC5a) in HS patient plasma samples can strongly upregulate CD11b expression through the binding of C5a to its receptor C5aR (CD88) on neutrophils. Consequently, blockade of the C5a-C5aR axis is expected to abolish or attenuate CD11b upregulation on the surface of neutrophils.
Two patient plasma samples Pat. 088 and Pat. 092 (5 μL) were incubated with fresh human blood (60 μL, as source of neutrophils) in the absence or presence of C5a-C5aR axis blockers (anti-C5a antibody IFX-1, anti-C5aR antibodies clone S5/1 and clone 7H110, C5aR antagonist PMX-53, and C5aR inhibitor Avacopan; 10 μL) in a total volume of 100 μL. Two control plasma samples (Ctrl 009 and Ctrl 010, 5 μL) prepared according to the procedure applied to the patient samples served as controls for unspecific activation. Blood with only saline (40 μL) or normal human plasma pool (huPP 5 μL+saline 35 μL) served as the non-stimulated control to define the baseline expression of CD11b. Blood sample with normal human plasma pool and spiked with recombinant human C5a (rhC5a) mimicked the stimulated condition. All samples were incubated at 37° C. for 20 min to activate CD11b upregulation. After cooling on ice, 2 μL of FITC-conjugated anti-mouse CD11b antibody was added to the samples. The labeled samples were kept on ice in the dark for another 30-min to minimize the background signal. Red blood cells were then lysed with 1×FACS Lysing solution at room temperature for 10 min. 2 mL Staining buffer was used to wash the remaining cells twice. After centrifugation at 2500 rpm for 3 min, cells were resuspended in 0.5 mL Staining buffer and ready for FACS analysis. A gate was set on the FSC vs. SSC plot to allow analysis only of cells with the size of neutrophils.
The percentage of blocking activity (BA) of the C5a-C5aR axis blockade test material was calculated using the formula below. Where MFI is the mean fluorescence intensity emitted from the CD11b-bound FITC on neutrophils. BA (%)=(MFIPatient plasma−MFITest material spiked patient plasma)÷(MFIPatient plasma−MFIhuPP)×100 b) Statistical Analysis

[2] = tested on: patients with moderate to severe hidradenitis suppurativa
Experimental: Primary objective of the trial was to explore the safety and tolerability of IFX-1 administered over 8 weeks. Secondary objectives of the trial were to assess the pharmacokinetics and pharmacodynamics of IFX-1 as well as to generate preliminary data on the efficacy of IFX-1 on clinical endpoints (e.g., HiSCR, DLQI, VAS for disease status, VAS for pain, HS-PGA, modified Sartorius Score) to generate further hypotheses. The enrolled patients were treated with 800 mg IFX-1 twice in the first week and once a week thereafter for the total 8-week treatment; i.e. IFX-1 was administered in nine intravenous doses of 800 mg IFX-1 on days 1, 4, 8, 15, 22, 29, 36, 43, and 50. All patients were followed up for 12 additional weeks.
• 1. Male or female patients ≥18 years old • 2. Written informed consent • 3. Diagnosis of HS for at least 1 year • 4. HS lesions in at least 2 distinct anatomic areas, one of which is Hurley Stage II or III • 5. Total AN (abscesses and nodules) count ≥3 • 6. Patients with either primary or secondary failure of biological treatment or are not eligible for treatment with other biologicals • NOTE: a primary failure is defined as an at least 12 week treatment with a biological compound without effect and a secondary failure as achieving an initial response after at least 12 week treatment with a biological compound followed by a relapse. • 7. […]

[3] = tested on: zymosan-induced generation of IL-8 in human whole blood; experiment: Cytokine IL-8 ELISA after zymosan A stimulation of human whole blood; assay type: cell-based; conditions: various concentrations of zymosan A, FIG. 4
Experimental: Human IL-8 ELISA was performed as recommended in the instruction manual under section “Assay procedure” (eBioscience Inc., San Diego, CA). Briefly, coating was performed overnight at 4° C. using 100 μl 1× capture antibody. Plates were blocked using 200 μl 1× assay diluents at RT for 1 h. Standard stock solutions were diluted with 1× assay diluents to the desired concentration, followed by 6 serial 1:2 dilutions. Sample supernatants were diluted as required in 1× assay diluents. According to the “Assay procedure”, 100 μl of standard dilutions and sample dilutions were added to the coated plate and incubated at RT for 1 h, followed by the incubation with 100 μl 1× detection antibody (RT, 1 h) and 100 μl 1× avidin-HRP (RT, 30 min). Color development was performed with 100 μl TMB substrate solution at RT for 10 min in the dark and was terminated with 100 μl stop solution. Absorbance was read out within 30 min using the plate reader at 450 nm. Zero standard value (blank) was subtracted from all standards and samples. Cytokine concentration of samples was calculated using a log(x)/log(y) standard curve of included standard samples.
In the same experimental set-up, IL-8 levels were measured and used to assess the inflammatory response. IL-8 concentrations after various doses of zymosan A stimulation ranged from 458 pg/ml to 3218 pg/ml in the absence of IFX-1. […]

cynomolgus monkey = experiment: Nonclinical tests and studies including GLP toxicology studies in cynomolgus monkey; conditions: in vitro/ex vivo tests and in vivo studies incl. GLP toxicology in cynomolgus monkey
[4] = tested on: HS plasma-induced CD11b upregulation on blood neutrophils; experiment: CD11b upregulation on blood neutrophils induced by HS plasma (human whole blood model); assay type: cell-based; conditions: HS plasma samples Pat. 088 and Pat. 092, FIG. 6
Text: To determine the role of C5a in the HS plasma sample on the neutrophil activation, the HS plasma samples with high levels of C5a were chosen and assessed by employing the human whole blood model. […] Recombinant human C5a was used as the positive control, while the plasma from healthy volunteers was chosen as the negative control. […] From these novel results the inventors concluded that blockade of C5a in HS patients is sufficient to achieve a strong suppression on neutrophil activation.

human C5a = molecular target: T1, human C5a (Homo sapiens, UniProt P01031); experiment: In vitro blocking of C5a-induced biological effects; assay type: cell-based; conditions: experimental in vitro settings
T1 sequence (P01031 678-751 limits assumed): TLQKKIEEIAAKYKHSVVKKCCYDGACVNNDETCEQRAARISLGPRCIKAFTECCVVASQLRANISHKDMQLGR

[5] = tested on: recombinant human C5a (rhC5a)-induced CD11b upregulation on blood neutrophils; experiment: CD11b assay in human whole blood stimulated with rhC5a; assay type: cell-based
Experimental: Human whole blood was stimulated with rhC5a or ZAP. To test the blocking activity of IFX-1 and irrelative control IgG4 on rhC5a, the antibodies were diluted to final Ab/Ag molar ratios of 1:1 and 0.5:1. To test the blocking activity of IFX-1 on eC5a, IFX-1 was diluted to reach final Ab/Ag molar ratios of approximately 4:1/3:1/2:1/1:1/0.5:1. Blood only with buffer served as a non-stimulation control to assess the baseline CD11b expression. Blood with antibody alone was used to determine the effects on CD11b expression of the antibody under non-stimulated condition. The complete mixture (Ab/Ag/blood) was incubated at 37° C. for 20 min to evaluate C5a-induced up-regulation of CD11b. After addition of anti-mouse CD11b:FITC samples were incubated for 30 min on ice to minimize background staining. Granulocytes were gated and mean fluorescence intensity (MFI) of FITC labeled (CD11b expressing) granulocytes was examined by flow cytometer.
Human blood was stimulated with rhC5a or zymosan A, and the complete mixture (Ab/Ag/blood) was incubated at 37° C. for 20 min to stimulate the C5a-induced up-regulation of CD11b. […] After lysis, cells were analyzed using flow cytometer. On the FSC/SSC dot-plot, granulocytes were gated and mean fluorescence intensity (MFI) of FITC labeled (CD11b expressing) granulocytes was examined for the whole sample set. […]

human = conditions: in vivo
[6] = HS patient plasma Pat. 088, test material 100 μM
[7] = HS patient plasma Pat. 088, test material 500 μM
[8] = HS patient plasma Pat. 092, test material 100 μM
[9] = HS patient plasma Pat. 092, test material 500 μM
[10] = HS patient plasma Pat. 088, test material 50 nM
[11] = HS patient plasma Pat. 088, test material 20 μM
[12] = HS patient plasma Pat. 092, test material 50 nM
[13] = HS patient plasma Pat. 092, test material 20 μM
[14] = HS patient plasma Pat. 088, test material 20 nM
[15] = HS patient plasma Pat. 092, test material 20 nM

Cc1ccc(NC(=O)[C@H]2CCCN(C(=O)c3c(C)cccc3F)[C@H]2c2ccc(NC3CCCC3)cc2)cc1C(F)(F)F [Avacopan, (2R,3S)-2-[4-(cyclopentylamino)phenyl]-1-(2-fluoro-6-methylbenzoyl)-N-[4-methyl-3-(trifluoromethyl)phenyl]piperidine-3-carboxamide]
CD11b upregulation induced by HS patient plasma ([1]; 500 μM, FIG. 11): completely blocked | Blocking activity (%) [1, 6]: 77.35% | CD11b (mean MFI) [1, 6]: 5289 | Blocking activity (%) [1, 7]: 104.57% | CD11b (mean MFI) [1, 7]: 3027 | Blocking activity (%) [1, 8]: 79.60% | CD11b (mean MFI) [1, 8]: 5000 | Blocking activity (%) [1, 9]: 104.17% | CD11b (mean MFI) [1, 9]: 3081.5

Ac-Phe-cyclo(Orn-Pro-D-Cha-Trp-Arg) [PMX-53]
CD11b upregulation induced by HS patient plasma samples as well as by rhC5a ([1]; 20 μM, FIG. 9B): completely abrogated | Blocking activity (%) [1, 10]: 55.46% | CD11b (mean MFI) [1, 10]: 4728.5 | Blocking activity (%) [1, 11]: 104.48% | CD11b (mean MFI) [1, 11]: 2027.5 | Blocking activity (%) [1, 12]: 56.69% | CD11b (mean MFI) [1, 12]: 4657.5 | Blocking activity (%) [1, 13]: 108.59% | CD11b (mean MFI) [1, 13]: 1912.5 | CD11b (mean MFI) ([1]; huPP + rhC5a (20 nM), test material 50 nM): 4235.5 | CD11b (mean MFI) ([1]; huPP + rhC5a (20 nM), test material 20 μM): 1851 | CD11b (mean MFI) ([1]; huPP, non-stimulated, test material 50 nM): 2053.5 | CD11b (mean MFI) ([1]; huPP, non-stimulated, test material 20 μM): 2218.5 | Blocking activity (%) ([1]; rhC5a-spiked huPP (20 nM rhC5a), test material 50 nM): 50.30% | Blocking activity (%) ([1]; rhC5a-spiked huPP (20 nM rhC5a), test material 20 μM): 107.88%

B1: IFX-1: chimeric monoclonal IgG4 antibody which specifically binds to the soluble human complement split product C5a (antibody, V domains shown)
VH: QVQLQQSGPQLVRPGTSVKISCKASGYSFTTFWMDWVKQRPGQGLEWIGRIDPSDSESRLDQRFKDRATLTVDKSSSTVYMQLSSPTSEDSAVYYCARGNDGYYGFAYWGQGTLVTVSS
VL: DIVLTQSPASLAVSLGQRATISCKASQSVDYDGDSYMKWYQQKPGQPPKLLIYAASNLQSGIPARFSGSGSGTDFTLNIHPVEEEDAATYYCQQSNEDPYTFGGGTKLEIK
HiSCR responders ([2]; out of 11 patients treated up to Day 56, 800 mg i.v.): 8 patients | HiSCR response rate ([2]; treatment period of 8 weeks, Day 56, 95% confidence interval 43% to 91%): 72.7% | CD11b upregulation by rhC5a and HS patient plasma samples (Pat. 088 and Pat. 092) ([1]; 20 nM, FIG. 10): completely abolish | Blocking activity (%) [1, 14]: 101.74% | CD11b (mean MFI) [1, 14]: 2209 | Blocking activity (%) [1, 15]: 103.70% | CD11b (mean MFI) [1, 15]: 2147 | CD11b (mean MFI) ([1]; huPP + rhC5a (20 nM), test material 20 nM): 2067 | CD11b (mean MFI) ([1]; huPP, non-stimulated, test material 20 nM): 2352 | Blocking activity (%) ([1]; rhC5a-spiked huPP (20 nM rhC5a), test material 20 nM): 104.29% | reduction rate of IL-8 generation [3]: up to 54% | toxicological or safety concerns in nonclinical tests and studies (cynomolgus monkey): None of the conducted nonclinical tests and studies revealed any toxicological or safety concerns | suppression of CD11b upregulation induced by HS plasma [4]: 100% | efficiency of neutralizing the effects of 2 molecules C5a by one antibody (human C5a): ~100% | blocking of rhC5a-stimulated CD11b up-regulation on human neutrophils ([5]; human whole blood, Ab/Ag molar ratios 1:1 and 0.5:1, FIG. 1): completely blocked | blocking of CD11b up-regulation stimulated by rhC5a ([5]; positive control of the zymosan A whole blood experiment, FIG. 3): 100% | safety laboratory parameters, vital signs and ECG parameters (human): no clinically relevant time or dose-related changes
